Patent US20220185764A1, “Resveratrol derivative and anti-fibrotic method using the same” (TAIZHOU HUAYUAN MEDICINAL TECH CO. LTD., priority 2020, published 2022)

Key:
[1] = tested on: liver function in mice; assay: Evaluation of subacute toxicity (continuous administration, liver function); assay type: in vivo; set-up: AST / ALP: unit not given here; details: serum; male ICR mice, 200 mg/kg intragastric once a day for 4 consecutive weeks
Procedure: Male ICR mice aged 6-8 weeks were fasted for 16 hours and randomly divided into groups, 5 mice per group. The test compound was formulated into a suspension with a 0.5% sodium carboxymethyl cellulose solution, and administered intragastrically at a concentration of 200 mg/kg, once a day for 4 consecutive weeks. After the last administration, the mice were fasted for 12 hours but were free to drink water during the fasting period. Then the mice were anesthetized. Blood was taken from the abdominal aorta and serum was prepared for the determination of blood biochemical and immunological indicators. EDTA anticoagulant blood was prepared for routine blood measurement. Except for some significant increase in transaminase (ALT, AST, […]) of some drug administration groups, there were no significant differences in other indicators among the groups.

[2] = tested on: bleomycin-induced pulmonary fibrosis in rats; assay: Evaluation of anti-pulmonary fibrosis in vivo (bleomycin-induced); set-up: species or system SD rats; details: lung tissue, 14th day
Procedure: Bleomycin (batch number: 16037911, Hisun Pfizer Co., Ltd.) was prepared into a 5 mg/mL solution with normal saline; and the test compound was prepared into a solution with a 0.5% sodium carboxymethyl cellulose solution to a certain concentration for later use.
Adult male SD rats were randomly divided into a normal control group, a model group and a drug treatment group. After the animals in each group were anesthetized by intraperitoneal injection of 20% urethane (10 mL/kg), they were incised in the middle of the neck to expose the trachea. The rats in the normal control group were injected with 0.2 ml normal saline into the trachea all at once, and intragastrically administrated with 0.5% sodium carboxymethyl cellulose solution (0.5 ml/100 g, 1 time/day) the next day. The rats in the model group were injected with 0.2 ml of bleomycin solution into the trachea all at once, and simultaneously intragastrically administrated with 0.5% sodium carboxymethyl cellulose solution (0.5 ml/100 g, 1 time/day). The rats in the drug treatment group were injected with 0.2 ml bleomycin solution into the trachea all at once and simultaneously intragastrically administrated with the 0.5% sodium carboxymethyl cellulose solution of the test compound at different concentrations (0.5 ml/100 g, 1 time/day). The rats in each group were bred in an air-conditioned animal laboratory with a temperature of (23±1)° C. and a relative humidity of (45±5)%, with day and night alternating every 12 hours, and they were free to eat and drink. The rats were fasted for 12 hours on the 14th day after administration. After anesthesia, the blood of the rat was collected from the femoral artery and the lung tissue was separated. The right lung was perfused with 10% neutral formaldehyde through the trachea and then was put into stationary liquid for fixation and pathological examination. The left lung was cryopreserved in a refrigerator at -80° C. for testing the biochemical indicators.
The contents of HYP, MDA, GSH and SOD in lung tissues were detected according to the corresponding operation steps of ELISA kit (Nanjing Jiancheng Biological Company).

[3] = tested on: CCl4 induced liver fibrosis in rats; assay: Evaluation of anti-liver fibrosis in vivo (CCl4 induced liver injury/fibrosis); set-up: species or system SD rats; details: test compound 10 mg/ml, 0.5 ml/100 g intragastric 1 time/day, 8 weeks; for GSH-PX / HYP / MDA / SOD: liver tissue, ELISA kit, CCl4 rats; for ALP / ALT / AST / LDH: serum, male SD rats, 40% CCl4 oil i.p. 1 time/3 days
Procedure: CCl4 was prepared into a 40% CCl4 oil with commercially available non-genetically modified peanut oil. The test compound was prepared into a 10 mg/ml solution with a 0.5% sodium carboxymethyl cellulose solution, for later use.
Adult male SD rats were randomly divided into a normal control group, a model group and a drug treatment group. The rats in the normal control group were intraperitoneally injected with peanut oil (0.3 ml/100 g, 1 time/3 days), and intragastrically administrated with 0.5% sodium carboxymethyl cellulose solution (0.5 ml/100 g, 1 time/1 day). The rats in the model group were intraperitoneally injected with 40% CCl4 oil (0.3 ml/100 g, 1 time/3 days), and intragastrically administrated with 0.5% sodium carboxymethyl cellulose solution (0.5 ml/100 g, 1 time/day). The rats in the drug treatment group were intraperitoneally injected with 40% CCl4 oil (0.3ml/100 g, 1 time/3 days), and intragastrically administrated with the 0.5% sodium carboxymethyl cellulose solution of the test compound (0.5 ml/100 g, 1 time/day). Rats in each group were bred in an air-conditioned animal laboratory with a temperature of (23±1)° C. and a relative humidity of (45±5)%, with day and night alternating every 12 hours, and they were free to eat and drink.
After being fed for 8 weeks, all the rats were fasted for 12 hours. After anesthesia, the blood of the rat was collected from the femoral artery, and the whole liver tissue was quickly weighed and frozen in liquid nitrogen for later use. 3 rats in each group were taken and their livers were cut, soaked into formalin solution for 24 h and prepared to paraffin-embedded pathological sections. The whole blood of the rats was centrifuged at 3000 r/min for 10min to obtain the separated serum, which was then frozen and stored for later use.
Alanine aminotransferase (ALT), aspartate aminotransferase (AST), alkaline phosphatase (ALP), and lactate dehydrogenase (LDH) in the serum were measured by Hitachi 7600 automatic biochemical analyzer.
The concentration of hydroxyproline (HYP) or malondialdehyde (MDA), and the activity of superoxide dismutase (SOD) or glutathione peroxidase(GSH-Px) in liver tissues were detected according to the corresponding operation steps of ELISA kit (Nanjing Jiancheng Biological Company).

[4] = dose 50 mg/kg intragastric 1 time/day
[5] = dose 100 mg/kg intragastric 1 time/day

SMILES | ALP [1] | ALT [1] [U/L] | AST [1] | HYP [2, 4] [μg/mg protein] | MDA [2, 4] [nmol/mg protein] | HYP [2, 5] [μg/mg protein] | MDA [2, 5] [nmol/mg protein] | GSH-PX [3] [U/mg protein] | HYP [3] [μg/mg protein] | MDA [3] [nmol/mg protein] | SOD [3] [U/mg protein] | ALP [3] [U/L] | ALT [3] [U/L] | AST [3] [U/L] | LDH [3] [U/L]
COc1ccc(/C=C/c2cc(OC)cc(OCCCC(C)(C)C(=O)O)c2)cc1 [Compound I-1b, 3,4′-dimethoxy-5-(4-methyl-4-carboxypentyloxy)-(E)-stilbene] | 471.35 ± 29.88 | 47.33 ± 10.61 | 161.6 ± 18.32 | 0.71 ± 0.17 | 0.91 ± 0.05 | 0.54 ± 0.12 | 0.84 ± 0.09 | 204.78 ± 27.75 | 0.59 ± 0.06 | 0.72 ± 0.12 | 29.99 ± 5.24 | 149.9 ± 52.9 | 85.3 ± 46.4 | 209.1 ± 63.2 | 843.1 ± 247.9
[2H]C([2H])([2H])Oc1ccc(/C=C/c2cc(OCCCC(C)(C)C(=O)O)cc(OC([2H])([2H])[2H])c2)cc1 [Compound I-2b, 3,4′-bis-[(trideuteratedmethyl)-oxy]-5-(4-methyl-4-carboxypentyloxy)-(E)-stilbene] | 242.83 ± 83.29 | 26.47 ± 6.79 | 105.33 ± 16.85 | 0.52 ± 0.11 | 0.75 ± 0.13 | 0.45 ± 0.08 | 0.76 ± 0.06 | 231.48 ± 58.72 | 0.58 ± 0.29 | 0.70 ± 0.08 | 33.60 ± 7.64 | 141.6 ± 27.6 | 69.1 ± 23.3 | 192.4 ± 78.4 | 836.5 ± 375.5
[2H]C([2H])([2H])Oc1ccc(/C=C/c2cc(OC)cc(OCCCC(C)(C)C(=O)O)c2)cc1 [Compound I-3b, 3-methoxy-4′-trideuterated methoxy-5-(4-methyl-4-carboxypentyloxy)-(E)-stilbene] | 381.67 ± 221.42 | 36.57 ± 10.40 | 138.32 ± 29.72 | 0.51 ± 0.09 | 0.81 ± 0.09 | 0.47 ± 0.10 | 0.73 ± 0.06 | 194.09 ± 32.82 | 0.70 ± 0.61 | 0.92 ± 0.43 | 31.33 ± 6.50 | 154.3 ± 65.0 | 79.9 ± 43.8 | 221.9 ± 109.4 | 780.4 ± 152.3
[2H]C([2H])([2H])Oc1cc(/C=C/c2ccc(OC)cc2)cc(OCCCC(C)(C)C(=O)O)c1 [Compound I-4b, 3-trideuterated methoxy-4′-methoxy-5-(4-methyl-4-carboxypentyloxy)-(E)-stilbene] | 258.33 ± 219.45 | 16.07 ± 2.45 | 72.73 ± 15.82 | 0.74 ± 0.19 | 0.96 ± 0.19 | 0.59 ± 0.12 | 0.78 ± 0.24 | 224.33 ± 2.16 | 0.68 ± 0.27 | 0.77 ± 0.14 | 28.64 ± 6.33 | 140.8 ± 60.2 | 91.3 ± 32.5 | 233.5 ± 90.6 | 771.1 ± 210.2
Oc1ccc(C=Cc2cc(O)cc(O)c2)cc1 [Resveratrol] |  |  |  |  |  | 0.75 ± 0.34 | 0.92 ± 0.33 | 174.33 ± 40.75 | 0.93 ± 0.15 | 1.17 ± 0.35 | 28.09 ± 4.55 | 203.6 ± 43.9 | 96.8 ± 41.9 | 205.33 ± 85.3 | 846.5 ± 261.2
